Columns and labels:
Format in all cases: physicochemical, human
[1] = GC/MS of serum sample: time from blood collection to centrifugation (Table G); settings: blood collection to centrifugation; for Rate of increase or decrease: detection intensity relative to 1 at 15 minutes; for Increase or decrease: detection intensity
Protocol: (§1) After standing, the blood sample was subjected to centrifugation under a condition of room temperature, 3500 rpm, and 5 minutes. […] After centrifugation, the blood-collecting vessel was left to stand at room temperature, and the serum was isolated during this time. Here, in order to investigate how the detection intensity of molecules contained in the sample was affected in cases where the time during which the blood-collecting vessel was left at room temperature was set to 1 hour and 6 hours as compared to that in a case where the time was set to 30 minutes, preparations were performed under the respective conditions of 30 minutes, 1 hour, and 6 hours. The obtained serum sample was frozen and stored. Here, in order to investigate how the detection intensity of molecules contained in the sample was affected in cases where freezing and thawing was performed 4 times, 6 times, and 10 times after freezing as compared to that in a case where freezing and thawing was performed 2 times after freezing, freezing and thawing was performed under the respective conditions of 2, 4, 6, and 10 times.
(§2) Frozen blood plasma samples and serum samples were subjected to GC/MS or LC/MS. In GC/MS, the blood plasma samples and serum samples were subjected to methoxymation and trimethylsilylation and then introduced to GC-MS.
(§3) GC/MS was conducted using GCMS·TQ8040 (Shimadzu Corporation) that was a GC·MS equipped with AOC·20i (Shimadzu Corporation) as an autosampler.
(§4) Column: BPX5 (inner diameter of 0.25 mm, length of 30 m, and film thickness of 0.25 μm) (SGE)
(§5) Column temperature: maintained at 60° C. for 2 minutes, then raised at 15° C./min, and maintained at 330° C. for 3 minutes.
(§6) Inlet temperature: 250° C.
(§7) Carrier gas control mode: constant linear velocity of 39.0 cm/sec
(§8) Sample introduction method: split (split ratio of 30:1) Injection volume: 1 μL
(§9) Ionization method: electron ionization
(§10) Ionization current: 60 μA
(§11) Interface temperature: 280° C.
(§12) Ion source temperature: 200° C.
(§13) Mode: multiple reaction monitoring (MRM)
The rate of increase or decrease in Table G is the value of detection intensity relative to 1 that is the detection intensity in a case where the time from blood collection to centrifugation is set to 15 minutes.

[2] = GC/MS of serum sample: time from centrifugation to isolation (Table H); set-up: key to Rate of increase or decrease / Rate of increase or decrease (first value, increase): detection intensity relative to 1 at 30 min centrifugation-to-isolation; settings: for Increase or decrease: detection intensity; for Rate of increase or decrease: detection intensity relative to 1 at 30 minutes
Protocol: as §1, §2, §3, §4, §5, §6, §7, §8, §9, §10, §11, §12, §13
The rate of increase or decrease in Table H is the value of detection intensity relative to 1 that is the detection intensity in a case where the time from centrifugation to isolation is set to 30 minutes.

[3] = GC/MS of serum sample: number of times of freezing and thawing (Table I); set-up: key to Rate of increase or decrease / Rate of increase or decrease (first value, increase): detection intensity relative to 2 freeze-thaw cycles = 1; settings: for Rate of increase or decrease: detection intensity relative to 1 at 2 times; for Number of times when compound is affected: detection intensity changed by 30% or more vs 2 times of freezing and thawing
Protocol: as §1, §2, §3, §4, §5, §6, §7, §8, §9, §10, §11, §12, §13
The rate of increase or decrease in Table I is the value of detection intensity relative to 1 that is the detection intensity in a case where the number of times of freezing and thawing is set to 2 times.

[4] = LC/MS of serum sample: number of times of freezing and thawing (Table M); set-up: key to Rate of increase or decrease: detection intensity relative to 1 at 2 freeze-thaw cycles; settings: for Number of times when compound is affected / Increase or decrease: serum sample, LC/MS; for Number of times when compound is affected: detection intensity changed by 30% or more vs 2 times of freezing and thawing; for Increase or decrease: detection intensity vs 2 times of freezing and thawing
Protocol: as §1, §2
Analysis column: Discovery HS F5-3 (inner diameter of 2.1 mm, length of 150 mm, film thickness of 3 μm) (Sigma-Aldrich)
Column temperature: 40° C.
(A) 0.1% formic acid (dissolved in water)
(B) 0.1% formic acid (dissolved in acetonitrile)
Flow velocity: 0.25 mL/min
Ionization method: electrospray
Temperature: • Desolvation Line (DL) temperature: 250° C. • Heat block temperature: 400° C. • Interface temperature: 300° C.
Gas flow rate: • Nebulizer gas flow rate: 3.0 L/min • Drying gas flow rate: 10.0 L/min • Heating gas flow rate: 10.0 L/min
as §13
The rate of increase or decrease in Table M is the value of detection intensity relative to 1 that is the detection intensity in a case where the number of times of freezing and thawing is set to 2 times.

[5] = serum, GC/MS, freezing and thawing 4 times
[6] = detection intensity, serum, GC/MS, freezing and thawing 4 times vs 2 times
[7] = 10 times of freezing and thawing, detection intensity relative to 1 at 2 times
[8] = 6 times of freezing and thawing, detection intensity relative to 1 at 2 times
[9] = 10 times of freezing and thawing
[10] = serum sample, GC/MS, detection intensity vs 2 times of freezing and thawing
[11] = serum, GC/MS, freezing and thawing 6 times
[12] = detection intensity, serum, GC/MS, freezing and thawing 6 times vs 2 times

O[C@H]1[C@H](O)[C@@H](O)[C@H](O)[C@@H](O)[C@H]1O [Inositol]
Rate of increase or decrease ([1]; after 8 hours): 1.46 | Increase or decrease ([1]; after 8 hours vs 15 minutes): Increase

O=C(O)CCO [3-Hydroxypropionic acid]
Increase or decrease ([2]; after 6 hours vs 30 minutes): Different from individual | Rate of increase or decrease (second value, decrease) ([2]; different from individual to individual, individuals with decrease, relative to 1 at 30 minutes, after 6 hours): 0.65 | Rate of increase or decrease (first value, increase) ([2]; different from individual to individual, individuals with increase, relative to 1 at 30 minutes, after 6 hours): 1.91 | Rate of increase or decrease [3, 5]: 0.55 | Increase or decrease [3, 6]: Decrease

CC(C)[C@H](N)C(=O)O [Valine, valine]
Rate of increase or decrease [4, 7]: 0.56 | Number of times when compound is affected [4]: 10 times | Increase or decrease [4]: Decrease

CSCC[C@H](N)C(=O)O [Methionine, methionine]
Rate of increase or decrease [4, 8]: 0.69 | Number of times when compound is affected [4]: 6 times | Increase or decrease [4]: Decrease

OC[C@@H](O)[C@@H](O)[C@H](O)[C@@H](O)CO [Sorbitol]
Rate of increase or decrease ([1]; after 8 hours): 1.54 | Increase or decrease ([1]; after 8 hours vs 15 minutes): Increase | Rate of increase or decrease [3, 9]: 0.61 | Number of times when compound is affected ([3]; serum sample, GC/MS): 10 times | Increase or decrease [3, 10]: Decrease

O=C(CO)[C@@H](O)[C@H](O)CO [Xylulose]
Rate of increase or decrease ([2]; after 6 hours): 2.48 | Increase or decrease ([2]; after 6 hours vs 30 minutes): Increase | Rate of increase or decrease ([1]; after 8 hours): 1.95 | Increase or decrease ([1]; after 8 hours vs 15 minutes): Increase

O=C(O)[C@H](O)[C@@H](O)[C@H](O)[C@H](O)CO [Gluconic acid]
Increase or decrease ([1]; after 12 hours vs 15 minutes): Increase

O=C[C@H](O)[C@H](O)[C@H](O)[C@H](O)CO [Allose]
Rate of increase or decrease [3, 11]: 0.62 | Increase or decrease [3, 12]: Decrease

CNCC(=O)O [Sarcosine, sarcosine]
Number of times when compound is affected ([3]; serum sample, GC/MS): 10 times | Increase or decrease [3, 10]: Increase

N[C@@H](Cc1ccccc1)C(=O)O [Phenylalanine, phenylalanine]
Rate of increase or decrease [4, 7]: 0.57 | Number of times when compound is affected [4]: 10 times | Increase or decrease [4]: Decrease

CCCCCCCCCCCCCCCCC(=O)O [Margaric acid, margaric acid]
Rate of increase or decrease [3, 9]: 1.35 | Number of times when compound is affected ([3]; serum sample, GC/MS): 10 times | Increase or decrease [3, 10]: Increase

O=C(O)CCC(O)C(=O)O (stereo not drawn) [2-Hydroxyglutaric acid]
Rate of increase or decrease ([2]; after 1 hour): 1.31 | Increase or decrease ([2]; after 1 hour vs 30 minutes): Increase | Rate of increase or decrease ([1]; after 8 hours): 2.00 | Increase or decrease ([1]; after 8 hours vs 15 minutes): Increase

CCCCCCCC/C=C\CCCCCCCC(N)=O [Oleamide]
Rate of increase or decrease [3, 5]: 2.08 | Increase or decrease [3, 6]: Increase

CCCCCCCCC(=O)O [Pelargonic acid, pelargonic acid]
Rate of increase or decrease [3, 9]: 0.67 | Number of times when compound is affected ([3]; serum sample, GC/MS): 10 times | Increase or decrease [3, 10]: Decrease

C[C@@H](O)[C@H](N)C(=O)O [Threonine, threonine]
Rate of increase or decrease ([4]; 6 times of freezing and thawing, relative to 1 at 2 times, different from individual to individual, first value (increase)): 1.31 | Rate of increase or decrease ([4]; 6 times of freezing and thawing, relative to 1 at 2 times, different from individual to individual, second value (decrease)): 0.69 | Number of times when compound is affected [4]: 6 times | Increase or decrease [4]: Different from individual

CC(C)(O)CC(=O)O [3-Hydroxyisovaleric acid]
Rate of increase or decrease ([1]; after 12 hours): 1.35 | Increase or decrease ([1]; after 12 hours vs 15 minutes): Increase

CCCCCCCCCC(=O)O [Decanoic acid]
Rate of increase or decrease ([1]; after 8 hours): 0.69 | Increase or decrease ([1]; after 8 hours vs 15 minutes): Decrease

Cc1ncc(CO)c(CN)c1O [Pyridoxamine]
Rate of increase or decrease ([1]; after 4 hours): 1.52 | Increase or decrease ([1]; after 4 hours vs 15 minutes): Increase | Rate of increase or decrease [3, 9]: 0.61 | Number of times when compound is affected ([3]; serum sample, GC/MS): 10 times | Increase or decrease [3, 10]: Decrease

OC[C@@H](O)[C@H](O)[C@@H](O)CO [Xylitol]
Rate of increase or decrease ([1]; after 8 hours): 0.62 | Increase or decrease ([1]; after 8 hours vs 15 minutes): Decrease

N[C@H]1C(O)O[C@H](CO)[C@@H](O)[C@@H]1O (stereo partly drawn) [Glucosamine]
Rate of increase or decrease ([2]; after 6 hours): 1.69 | Increase or decrease ([2]; after 6 hours vs 30 minutes): Increase | Rate of increase or decrease [3, 9]: 2.43 | Number of times when compound is affected ([3]; serum sample, GC/MS): 10 times | Increase or decrease [3, 10]: Increase

CC(=O)C(=O)O [Pyruvic acid]
Rate of increase or decrease ([2]; after 1 hour): 0.66 | Increase or decrease ([2]; after 1 hour vs 30 minutes): Decrease | Rate of increase or decrease ([1]; after 4 hours): 0.65 | Increase or decrease ([1]; after 4 hours vs 15 minutes): Decrease

CC(=NO)C(=O)O [Pyruvic oxime]
Rate of increase or decrease ([2]; after 6 hours): 1.34 | Increase or decrease ([2]; after 6 hours vs 30 minutes): Increase | Rate of increase or decrease [3, 9]: 1.69 | Number of times when compound is affected ([3]; serum sample, GC/MS): 10 times | Increase or decrease [3, 10]: Increase

O=C(O)CCCC(=O)O [Glutaric acid]
Rate of increase or decrease ([1]; after 8 hours): 1.39 | Increase or decrease ([1]; after 8 hours vs 15 minutes): Increase

O=C(O)C(=O)Cc1ccccc1 [Phenylpyruvic acid]
Rate of increase or decrease ([2]; after 6 hours): 1.45 | Increase or decrease ([2]; after 6 hours vs 30 minutes): Increase | Rate of increase or decrease [3, 9]: 2.06 | Number of times when compound is affected ([3]; serum sample, GC/MS): 10 times | Increase or decrease [3, 10]: Increase

O=C(O)c1ccc(CO)o1 [5-Hydroxymethyl-2-furancarboxylic acid]
Rate of increase or decrease ([2]; after 1 hour): 1.71 | Increase or decrease ([2]; after 1 hour vs 30 minutes): Increase

CC(=O)NCC(=O)O [Acetylglycine]
Rate of increase or decrease ([1]; after 4 hours): 0.68 | Increase or decrease ([1]; after 4 hours vs 15 minutes): Decrease

Nc1c(O)cccc1C(=O)O [3-Hydroxyanthranyl acid]
Rate of increase or decrease ([1]; after 4 hours): 0.59 | Increase or decrease ([1]; after 4 hours vs 15 minutes): Decrease | Rate of increase or decrease [3, 11]: 1.34 | Increase or decrease [3, 12]: Increase

N[C@@H](Cc1ccc(O)cc1)C(=O)O [Tyrosine, tyrosine]
Rate of increase or decrease [4, 8]: 0.60 | Number of times when compound is affected [4]: 6 times | Increase or decrease [4]: Decrease

NCCC(=O)O [3-Aminopropionic acid (β-alanine), 3-Aminopropionic acid]
Rate of increase or decrease ([1]; after 8 hours): 1.46 | Increase or decrease ([1]; after 8 hours vs 15 minutes): Increase

NO [Hydroxylamine]
Rate of increase or decrease ([2]; after 6 hours): 1.87 | Increase or decrease ([2]; after 6 hours vs 30 minutes): Increase | Rate of increase or decrease [3, 9]: 2.31 | Number of times when compound is affected ([3]; serum sample, GC/MS): 10 times | Increase or decrease [3, 10]: Increase

CC(=O)N[C@@H](CCC(N)=O)C(=O)O [N-acetylglutamine]
Rate of increase or decrease ([2]; after 6 hours): 1.58 | Increase or decrease ([2]; after 6 hours vs 30 minutes): Increase | Rate of increase or decrease [3, 9]: 2.17 | Number of times when compound is affected ([3]; serum sample, GC/MS): 10 times | Increase or decrease [3, 10]: Increase

OC[C@@H](O)[C@@H](O)CO [Meso-erythritol]
Rate of increase or decrease ([1]; after 8 hours): 0.66 | Increase or decrease ([1]; after 8 hours vs 15 minutes): Decrease | Rate of increase or decrease [3, 9]: 0.69 | Number of times when compound is affected ([3]; serum sample, GC/MS): 10 times | Increase or decrease [3, 10]: Decrease

CC(C)C(=O)C(=O)O [2-Ketoisovaleric acid]
Rate of increase or decrease ([1]; after 8 hours): 0.67 | Increase or decrease ([1]; after 8 hours vs 15 minutes): Decrease
